Calls of active or inactive are those of the source.
Experiments:
cells = assay type: functional, cell-based
[1] = biological target: Serine/threonine-protein phosphatase (Candida dubliniensis (strain CD36 / CBS 7987 / NCPF 3949 / NRRLY-17841) (Yeast), UniProt B9W6M3); test: blockers of CaCl2-induced CDRE-lacZ signaling – S. cerevisiae, luminescence, secondary, dose response (AID 2388); assay type: functional, cell-based;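 further: yeast reporter cells carrying a calcineurin-responsive lacZ construct stimulated with calcium chloride; luminescent beta-galactosidase reporter signal in whole cells rather than isolated phosphatase activity; potency for inhibition where a drop in reporter signal means calcineurin blockade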
[2] = biological target: ATP-dependent molecular chaperone HSP82 (Candida albicans (strain WO-1) (Yeast), UniProt C4YTQ8); test: steroid-induced GRE reporter decrease in yeast – S. cerevisiae, luminescence, Hsp90 inhibitor project, dose response (AID 2400); assay type: functional, cell-based;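 further: beta-galactosidase luminescence from glucocorticoid response element reporter as proxy for Hsp90 function; inhibitor potency where signal loss means Hsp90 inhibition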
[3] = biological target: cGMP-dependent protein kinase 1 (Homo sapiens, UniProt Q13976); assay type: functional;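 further: value from a kinome panel screen with PRKG1 as the panel member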
[4] = biological target: Calcium/calmodulin-dependent protein kinase type II subunit gamma (Homo sapiens, UniProt Q13555); assay type: functional
[5] = biological target: MAP kinase-activated protein kinase 2 (Homo sapiens, UniProt P49137); assay type: functional;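 further: measured as one member of a kinome-wide kinase panel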
[6] = biological target: Mast/stem cell growth factor receptor Kit (Homo sapiens, UniProt P10721); assay type: functional;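 further: KIT entry within a kinase panel assay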
[7] = biological target: Tyrosine-protein kinase ITK/TSK (Homo sapiens, UniProt Q08881); assay type: functional;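 further: affinity for ITK measured as one member of a broad kinase panel profiling binding across the kinome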
[8] = biological target: Proto-oncogene tyrosine-protein kinase ROS (Homo sapiens, UniProt P08922); assay type: functional;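 further: ROS1 tested as one member of a kinome-wide kinase panel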
Insulin receptor = Insulin receptor (Homo sapiens, UniProt P06213); assay type: functional;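 further: insulin receptor kinase tested as one member of a kinome-wide kinase panel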
[9] = biological target: Tyrosine-protein kinase Srms (Homo sapiens, UniProt Q9H3Y6); assay type: functional;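 further: SRMS measured as one member of a kinome-wide kinase profiling panel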
[10] = biological target: Dual specificity tyrosine-phosphorylation-regulated kinase 3 (Homo sapiens, UniProt O43781); assay type: functional;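 further: measured as one member of a broad kinase panel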
[11] = biological target: Receptor tyrosine-protein kinase erbB-2 (Homo sapiens, UniProt P04626); test: Navigating the Kinome. Panel member name: ERBB2; assay type: functional
Ephrin type-A receptor 2 = Ephrin type-A receptor 2 (Homo sapiens, UniProt P29317); assay type: functional;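 further: EPHA2 tested as one member of a kinome-wide kinase panel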
[12] = biological target: Serine/threonine-protein kinase Nek4 (Homo sapiens, UniProt P51957); assay type: functional
[13] = biological target: Interleukin-1 receptor-associated kinase 1 (Homo sapiens, UniProt P51617); assay type: functional;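 further: IRAK1 tested as one member of a kinome panel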
[14] = biological target: Serine/threonine-protein kinase BRSK1 (Homo sapiens, UniProt Q8TDC3); assay type: functional;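 further: measured within a kinome-wide kinase panel, with the target listed as KIAA1811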
[15] = biological target: T1, Replicative DNA helicase DnaB (Mycobacterium tuberculosis, UniProt P9WMR3); test: DnaB intein splicing inhibitors, dose response, biochemical, cell-free fluorescence (AID 449749); assay type: functional
T1 sequence (P9WMR3 whole entry): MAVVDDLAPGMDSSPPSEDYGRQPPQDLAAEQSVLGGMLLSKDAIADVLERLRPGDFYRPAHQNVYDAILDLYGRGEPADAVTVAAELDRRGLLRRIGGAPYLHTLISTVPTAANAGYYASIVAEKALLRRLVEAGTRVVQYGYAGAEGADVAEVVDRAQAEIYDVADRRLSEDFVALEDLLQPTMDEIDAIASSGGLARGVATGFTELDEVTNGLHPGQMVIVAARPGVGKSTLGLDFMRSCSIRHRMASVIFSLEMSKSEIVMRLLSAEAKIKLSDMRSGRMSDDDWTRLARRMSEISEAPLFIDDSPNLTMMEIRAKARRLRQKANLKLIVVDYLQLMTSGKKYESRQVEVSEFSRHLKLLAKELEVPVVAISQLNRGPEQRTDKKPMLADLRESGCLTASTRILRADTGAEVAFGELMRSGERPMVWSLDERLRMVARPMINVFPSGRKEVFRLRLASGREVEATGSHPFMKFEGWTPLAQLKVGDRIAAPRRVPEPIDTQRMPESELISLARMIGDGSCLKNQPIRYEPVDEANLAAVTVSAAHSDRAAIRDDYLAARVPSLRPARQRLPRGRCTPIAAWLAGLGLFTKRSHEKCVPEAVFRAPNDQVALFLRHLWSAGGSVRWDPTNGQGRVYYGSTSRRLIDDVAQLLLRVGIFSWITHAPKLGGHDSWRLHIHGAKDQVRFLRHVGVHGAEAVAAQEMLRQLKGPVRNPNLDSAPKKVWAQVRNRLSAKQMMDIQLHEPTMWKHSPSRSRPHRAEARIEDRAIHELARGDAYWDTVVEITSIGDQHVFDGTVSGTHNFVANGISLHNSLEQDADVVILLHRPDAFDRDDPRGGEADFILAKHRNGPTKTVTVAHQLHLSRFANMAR

Chain of Serine/threonine-protein kinase Nek4 (P51957 whole entry): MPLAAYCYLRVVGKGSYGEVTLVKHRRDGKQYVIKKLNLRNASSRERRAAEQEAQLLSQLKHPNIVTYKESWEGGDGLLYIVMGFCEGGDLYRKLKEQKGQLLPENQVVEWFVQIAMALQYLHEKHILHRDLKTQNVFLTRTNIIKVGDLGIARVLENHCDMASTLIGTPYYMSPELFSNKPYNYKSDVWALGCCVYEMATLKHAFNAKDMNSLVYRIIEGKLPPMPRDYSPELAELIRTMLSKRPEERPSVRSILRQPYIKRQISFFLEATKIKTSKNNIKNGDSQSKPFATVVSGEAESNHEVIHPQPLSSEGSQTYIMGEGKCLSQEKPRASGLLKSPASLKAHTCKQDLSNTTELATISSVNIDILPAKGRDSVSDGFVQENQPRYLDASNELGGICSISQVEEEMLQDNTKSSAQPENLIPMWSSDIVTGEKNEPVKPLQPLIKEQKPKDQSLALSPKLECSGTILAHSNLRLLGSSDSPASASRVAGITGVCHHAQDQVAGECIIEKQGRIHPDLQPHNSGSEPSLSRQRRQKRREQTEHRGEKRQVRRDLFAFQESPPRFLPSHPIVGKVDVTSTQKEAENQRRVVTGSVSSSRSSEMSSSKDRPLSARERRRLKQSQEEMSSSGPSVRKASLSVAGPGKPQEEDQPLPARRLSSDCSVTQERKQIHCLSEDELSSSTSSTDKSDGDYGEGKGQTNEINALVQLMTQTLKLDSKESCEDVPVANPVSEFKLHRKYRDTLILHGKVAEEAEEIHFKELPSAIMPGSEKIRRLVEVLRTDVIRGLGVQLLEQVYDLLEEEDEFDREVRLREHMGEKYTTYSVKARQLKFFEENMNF
Chain of Tyrosine-protein kinase ITK/TSK (Q08881 whole entry): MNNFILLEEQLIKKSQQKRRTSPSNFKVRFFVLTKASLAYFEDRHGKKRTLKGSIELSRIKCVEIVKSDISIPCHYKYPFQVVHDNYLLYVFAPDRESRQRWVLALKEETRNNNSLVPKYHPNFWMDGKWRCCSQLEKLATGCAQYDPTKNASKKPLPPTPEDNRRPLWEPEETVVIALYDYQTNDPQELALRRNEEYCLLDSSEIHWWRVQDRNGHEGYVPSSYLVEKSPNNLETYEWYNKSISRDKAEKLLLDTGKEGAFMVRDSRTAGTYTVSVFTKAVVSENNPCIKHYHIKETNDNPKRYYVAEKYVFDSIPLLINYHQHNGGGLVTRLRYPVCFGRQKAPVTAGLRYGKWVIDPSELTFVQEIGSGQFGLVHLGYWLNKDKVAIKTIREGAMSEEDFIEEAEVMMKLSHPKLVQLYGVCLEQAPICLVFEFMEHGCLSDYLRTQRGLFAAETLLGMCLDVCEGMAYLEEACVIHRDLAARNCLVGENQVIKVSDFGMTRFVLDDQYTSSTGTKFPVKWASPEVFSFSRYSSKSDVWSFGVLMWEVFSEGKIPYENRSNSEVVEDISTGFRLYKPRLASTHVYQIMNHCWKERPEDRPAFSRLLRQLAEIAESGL
Chain of Proto-oncogene tyrosine-protein kinase ROS (P08922 whole entry): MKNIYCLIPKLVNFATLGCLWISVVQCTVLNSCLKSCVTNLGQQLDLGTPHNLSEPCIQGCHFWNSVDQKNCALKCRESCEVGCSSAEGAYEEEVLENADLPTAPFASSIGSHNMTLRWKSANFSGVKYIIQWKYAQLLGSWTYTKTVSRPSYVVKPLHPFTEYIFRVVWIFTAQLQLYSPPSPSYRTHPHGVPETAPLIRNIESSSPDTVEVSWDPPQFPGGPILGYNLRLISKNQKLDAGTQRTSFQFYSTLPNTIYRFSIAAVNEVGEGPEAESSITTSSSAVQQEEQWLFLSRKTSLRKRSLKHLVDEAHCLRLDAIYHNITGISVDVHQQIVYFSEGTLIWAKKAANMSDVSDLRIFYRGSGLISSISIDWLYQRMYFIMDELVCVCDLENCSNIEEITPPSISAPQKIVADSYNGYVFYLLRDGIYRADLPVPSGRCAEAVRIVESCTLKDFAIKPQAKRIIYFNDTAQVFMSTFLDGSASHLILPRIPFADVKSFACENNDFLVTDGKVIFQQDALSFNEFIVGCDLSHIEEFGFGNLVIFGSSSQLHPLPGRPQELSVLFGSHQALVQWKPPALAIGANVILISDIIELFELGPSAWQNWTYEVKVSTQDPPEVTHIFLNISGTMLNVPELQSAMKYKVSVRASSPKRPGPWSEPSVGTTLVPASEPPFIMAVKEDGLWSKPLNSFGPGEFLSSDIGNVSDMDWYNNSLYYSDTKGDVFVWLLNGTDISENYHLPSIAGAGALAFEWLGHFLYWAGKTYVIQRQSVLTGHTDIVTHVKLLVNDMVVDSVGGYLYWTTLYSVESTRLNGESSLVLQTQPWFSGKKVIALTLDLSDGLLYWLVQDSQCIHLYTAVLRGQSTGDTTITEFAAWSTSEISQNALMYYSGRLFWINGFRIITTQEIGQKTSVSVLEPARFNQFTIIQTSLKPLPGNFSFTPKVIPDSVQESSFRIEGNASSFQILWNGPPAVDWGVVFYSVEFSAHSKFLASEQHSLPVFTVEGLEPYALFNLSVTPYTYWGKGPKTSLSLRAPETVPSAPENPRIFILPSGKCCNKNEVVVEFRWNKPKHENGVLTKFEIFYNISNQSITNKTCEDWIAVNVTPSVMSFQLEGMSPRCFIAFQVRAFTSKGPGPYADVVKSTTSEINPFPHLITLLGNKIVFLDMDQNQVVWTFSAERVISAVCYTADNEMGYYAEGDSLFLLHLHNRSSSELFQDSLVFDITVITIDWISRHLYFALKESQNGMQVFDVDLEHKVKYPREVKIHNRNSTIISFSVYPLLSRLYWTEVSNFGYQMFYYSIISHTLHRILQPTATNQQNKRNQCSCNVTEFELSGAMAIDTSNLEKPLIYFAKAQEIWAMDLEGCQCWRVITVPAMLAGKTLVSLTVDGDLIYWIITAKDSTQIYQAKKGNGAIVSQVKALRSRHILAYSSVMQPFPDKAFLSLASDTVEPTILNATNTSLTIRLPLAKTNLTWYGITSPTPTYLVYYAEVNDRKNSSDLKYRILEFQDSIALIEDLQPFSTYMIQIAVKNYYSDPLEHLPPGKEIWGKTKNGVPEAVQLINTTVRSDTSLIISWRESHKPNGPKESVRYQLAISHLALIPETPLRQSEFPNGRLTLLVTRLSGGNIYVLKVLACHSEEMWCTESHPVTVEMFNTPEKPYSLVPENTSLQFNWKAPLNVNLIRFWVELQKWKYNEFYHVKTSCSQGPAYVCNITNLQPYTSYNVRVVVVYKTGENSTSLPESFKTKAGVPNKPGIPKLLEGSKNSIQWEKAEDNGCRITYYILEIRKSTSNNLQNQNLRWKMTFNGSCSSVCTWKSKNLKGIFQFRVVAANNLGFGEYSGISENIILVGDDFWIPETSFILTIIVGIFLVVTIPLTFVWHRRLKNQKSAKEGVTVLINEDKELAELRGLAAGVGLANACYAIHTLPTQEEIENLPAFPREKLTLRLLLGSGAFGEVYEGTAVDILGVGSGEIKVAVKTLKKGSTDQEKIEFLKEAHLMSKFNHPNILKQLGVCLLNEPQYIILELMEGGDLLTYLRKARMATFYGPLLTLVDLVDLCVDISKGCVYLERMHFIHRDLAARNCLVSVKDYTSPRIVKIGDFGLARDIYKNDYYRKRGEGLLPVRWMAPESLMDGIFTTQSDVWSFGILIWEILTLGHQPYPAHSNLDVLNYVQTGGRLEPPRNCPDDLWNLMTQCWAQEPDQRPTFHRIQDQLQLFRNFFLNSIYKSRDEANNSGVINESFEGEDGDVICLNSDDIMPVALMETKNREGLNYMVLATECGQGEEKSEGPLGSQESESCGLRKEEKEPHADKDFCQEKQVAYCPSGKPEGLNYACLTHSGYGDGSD
Chain of Mast/stem cell growth factor receptor Kit (P10721 whole entry): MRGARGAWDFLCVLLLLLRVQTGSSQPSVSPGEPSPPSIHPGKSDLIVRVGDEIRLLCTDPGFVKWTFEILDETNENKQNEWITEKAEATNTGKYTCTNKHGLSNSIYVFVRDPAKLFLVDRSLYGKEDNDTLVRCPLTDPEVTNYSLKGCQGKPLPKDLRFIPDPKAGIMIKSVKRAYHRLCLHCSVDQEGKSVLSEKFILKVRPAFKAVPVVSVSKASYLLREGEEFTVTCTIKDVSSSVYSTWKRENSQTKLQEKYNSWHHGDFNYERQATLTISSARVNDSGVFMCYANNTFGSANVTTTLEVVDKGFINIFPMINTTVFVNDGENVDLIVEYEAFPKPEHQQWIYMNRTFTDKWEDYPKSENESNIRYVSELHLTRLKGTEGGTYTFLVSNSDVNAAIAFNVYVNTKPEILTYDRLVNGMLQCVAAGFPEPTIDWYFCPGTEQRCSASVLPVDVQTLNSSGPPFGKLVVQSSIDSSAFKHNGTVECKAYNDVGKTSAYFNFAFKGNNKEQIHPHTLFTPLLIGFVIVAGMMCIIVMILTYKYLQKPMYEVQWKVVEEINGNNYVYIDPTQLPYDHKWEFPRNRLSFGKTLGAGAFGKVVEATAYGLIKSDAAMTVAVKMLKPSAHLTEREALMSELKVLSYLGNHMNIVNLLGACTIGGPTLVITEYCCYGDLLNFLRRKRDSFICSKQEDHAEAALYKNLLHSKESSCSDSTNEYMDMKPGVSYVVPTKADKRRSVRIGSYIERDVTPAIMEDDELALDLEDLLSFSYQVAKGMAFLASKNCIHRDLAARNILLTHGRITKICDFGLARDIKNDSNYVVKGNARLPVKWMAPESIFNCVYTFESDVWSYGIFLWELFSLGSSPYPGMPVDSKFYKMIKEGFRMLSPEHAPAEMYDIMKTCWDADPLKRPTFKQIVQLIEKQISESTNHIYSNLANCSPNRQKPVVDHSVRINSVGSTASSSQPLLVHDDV

Cc1cc(NC(c2ccc(Cl)cc2)c2ccc3cccnc3c2O)no1 (stereo not drawn)
EC50 (cells): > 350000 nM (not active) | EC50 [1]: > 180000 nM (inactive) | EC50 [2]: 20700 nM (active)

CS(=O)(=O)N(Cc1ccc2[nH]c(=O)c3cccn3c2c1)C1CC1
Ki [3]: 251 nM (active) | Ki [4]: 251 nM (active) | Ki [5]: 79.4 nM (active) | Ki [6]: 251 nM (active) | Ki [7]: > 1580 nM (inactive) | Ki [8]: 50.1 nM (active) | Ki (Insulin receptor): > 5010 nM (inactive) | Ki [9]: 631 nM (active) | Ki [10]: 158 nM (active) | Ki [11]: 31.6 nM (active) | Ki (Ephrin type-A receptor 2): > 3160 nM (inactive) | Ki [12]: 251 nM (active) | Ki [13]: 158 nM (active) | Ki [14]: 200 nM (active)

OCC[n+]1c2ccccc2nc2ccc(N3CCOCC3)cc21
AC50 [15]: > 380000 nM (inactive)

Source: ChEMBL document CHEMBL1201862, “PubChem BioAssay data set” (2004)
